IC50 data for 28 compounds are collected here from US20240109893A1, “PREPARATION AND APPLICATION METHOD OF HETEROCYCLIC COMPOUNDS AS KRAS INHIBITOR” (SHANGHAI KECHOW PHARMA, INC., priority 2020, published 2024).

The first assay has as its system H358 cells. Put plainly: Cell activity experiment: activity test of H358 cells (MTT, 5 days). The class given is cell-based. The conditions noted are these: 5 days incubation, absorbance 492 nm. The procedure: Example: Cell Activity Experiment
1. Cells: H358 purchased from Shanghai EK-Bioscience Biotechnology Co., Ltd.
2. Reagents: RPMI 1640 medium, Tryple, MTT (5 mg/mL), DMSO, and DPBS.
3. Instruments: an incubator at 37° C. and 5% CO2, a UTRAO microplate reader, a biosafety cabinet, a cell counting plate, and an Optec optical microscope.
4. Experimental consumables: 96-well plate Item No.: 3599, and 96-well round-bottomed dispensing plate.
Experimental Steps of Activity Test of H358 Cells:
1. Plating: Cells in the logarithmic growth phase were digested with Tryple and terminated with a fresh medium, and the cells were counted; and the cell concentration was adjusted to 55555 cells/mL with a fresh medium, wherein 90 μL was added to each well, and those on edges were filled with sterile DPBS.
2. The plate was incubated in the incubator at 37° C. and 5% CO2 for 24 h, so that the cells cover the bottom of the well by about 50%.
3. Drug preparation for experimental group: The drug was dissolved in DMSO to prepare a 20 mmol/L stock solution; the stock solution was further diluted with DMSO to 2 mmol/L, which was serially 3-fold diluted to form an […]-concentration gradient, resulting in a 200× serial compound solution; 10 μL of the serial compound solution was taken and added to 190 μLμL of RPMI1640 medium to obtain a 10× serial compound solution; and 10 μL of the 10× compound solution was taken and added to 90 μL 96-well cell culture plate, with three replicates per grade. The concentration gradient of the compound in the 96-well cell culture plate was […], 1.524158 nM, 4.572474 nM, 13.717420 nM, 41.152260 nM, 123.456800 nM, 370.370400 nM, 1111.111000 nM, 3333.333000 nM, and 10000.000000 nM, with 100 μL per well, and the final concentration of DMSO was 0.5%.
The control group contained the same volume of solvent as the experimental group and was diluted with a complete medium, with 100 μL per well.
4. Incubation was carried out for 5 days in an incubator with 5% CO2 at 37° C.
5. After 5 days, 10 μL of an MTT solution (5 mg/mL) was added to each well, and the culture was continued for 4 h.
6. The culture was terminated, and the culture solution was carefully sucked out of the well.
7. 150 μL of dimethyl sulfoxide (DMSO) was added to each of the null wells in the experimental group and the control group; and after shaking at a medium speed for 10 s, the crystal was fully dissolved, and the optical absorbance value thereof was measured at a wavelength of 492 nm.
As for `C=CC(=O)N1CC[C@H]2[C@H]1CN2c1nc(OC[C@@]23CCCN2C[C@H](F)C3)nc2cc(-c3cccc4ccc(F)c(Cl)c34)c(Cl)cc12` [Example 475], half-maximal inhibition (IC50) was put at 25 nM. This lies in the double-digit nanomolar range.

The same assay, now with this note: Homo sapiens, NCI-H358, 120 h, 5 days incubation, absorbance 492 nm.
For `C=C(F)C(=O)N1CCN(c2nc(OCC34CCCN3CCC4)nc3c(F)c(-c4cncc5c4CCCC5)ncc23)C[C@@H]1CC#N` [Example 38, (S)-2-(4-(8-fluoro-2-((tetrahydro-1H-pyrrolizin-7a(5H)-yl)methoxy)-7-(5,6,7,8-tetrahydroisoquinolin-4-yl)pyridino[4,3-d]pyrimidin-4-yl)-1-(2-fluoroacryloyl)piperazin-2-yl)acetonitrile], the IC50 – broadly, the concentration that inhibits the measured activity by half – is 36 nM.

Regarding `C=C(F)C(=O)N1CCN(c2nc(OCC34CCCN3C[C@H](F)C4)nc3cc(-c4cncc5c4CCCC5)ccc23)C[C@@H]1CC#N` (stereo partly shown) [Example 149], the IC50 was 10 nM.

For `C=C(F)C(=O)N1CC[C@@H]2[C@H]1CN2c1nc(OC[C@@]23CCCN2C[C@H](F)C3)nc2c(F)c(-c3cncc4c3CCCC4)ncc12` [Example 48], the IC50 came to 20 nM.

For `C=CC(=O)N1CCN(c2nc(OC[C@@H]3C[C@@H](F)CN3C)nc3cc(-c4cccc5ccc(F)c(Cl)c45)c(Cl)cc23)C[C@@H]1CC#N` [Example 469], the IC50 came out at 70 nM. Against the preceding compound, the IC50 is about 3.5-fold higher.

In the case of `C=CC(=O)N1CCN(c2nc(OC[C@@]34CCCN3C[C@H](F)C4)nc3c(F)c(-c4ccc(F)c5c4CCCC5)ncc23)C[C@@H]1CC#N` [Example 23], the IC50 amounted to 3 nM.

For `C=C(F)C(=O)N1CCN(c2nc(OC[C@@H]3CCCN3C)nc3c(F)c(-c4cncc5c4CCCC5)ncc23)C[C@@H]1CC#N` [Example 34, 2-((S)-4-(8-fluoro-2-(((S)-1-methylpyrrolidin-2-yl)methoxy)-7-(5,6,7,8-tetrahydroisoquinolin-4-yl)pyridino[4,3-d]pyrimidin-4-yl)-1-(2-fluoroacryloyl)piperazin-2-yl)acetonitrile], the IC50 was 80 nM.

Turning to `C=CC(=O)N1CCN(c2nc(OCC34CCCN3C[C@H](F)C4)nc3cc(-c4cncc5cccc(Cl)c45)ccc23)C[C@@H]1CC#N` (stereo partly shown) [Example 132], half-maximal inhibition (IC50) required 3 nM.

Consider `C=C(F)C(=O)N1CC[C@@H]2[C@H]1CN2c1nc(OC[C@@]23CCCN2C[C@H](F)C3)nc2c(F)c(-c3ccc(F)c4c3CCCC4)ncc12` [Example 32], for which 35 nM corresponded to half-maximal inhibition (IC50).

The compound `C=CC(=O)N1CCN(c2nc(OC[C@@]34CCCN3C[C@H](F)C4)nc3c(F)c(-c4cccc5c4CC4CC54)ncc23)C[C@@H]1CC#N` (single isomer, unassigned) [Example 878] yielded an IC50 of 236 nM. Compared with the last compound, the IC50 is about 6.7-fold higher.

Compound `C=C(F)C(=O)N1CCN(c2nc(OC[C@@H]3CCCN3C)nc3cc(-c4cccc5c4C4CC4C5)ccc23)C[C@@H]1CC#N` (stereo partly drawn) [Example 537, 2-((2S)-1-(2-fluoroacryloyl)-4-(2-(((S)-1-methylpyrrolidin-2-yl)methoxy)-7-(1,1a,6,6a-tetrahydrocyclopropa[a]inden-2-yl)quinazolin-4-yl)piperazin-2-yl)acetonitrile] came in with an IC50 of 150 nM.

For the compound `C=CC(=O)N1CCN(c2nc(OCC34CCCN3CCC4)nc3c(F)c(-c4cccc5cccc(Cl)c45)ccc23)C[C@@H]1CC#N` [Example 364, (S)-2-(1-acryloyl-4-(7-(8-chloronaphthalen-1-yl)-8-fluoro-2-((tetrahydro-1H-pyrrolizin-7a(5H)-yl)methoxy)quinazolin-4-yl)piperazin-2-yl)acetonitrile], the IC50 stood at 2 nM.

`C=CC(=O)N1CCN(c2nc(OCC34CCCN3C[C@H](F)C4)nc3c(F)c(-c4cncc5cccc(Cl)c45)ccc23)C[C@@H]1CC#N` (stereo partly drawn) [Example 164, 2-((2S)-1-acryloyl-4-(7-(5-chloroisoquinolin-4-yl)-8-fluoro-2-((((2R,7aS)-2-fluorotetrahydro-1H-pyrrolizin-7a(5H))-yl)methoxy)quinazolin-4-yl)piperazin-2-yl)acetonitrile] had an IC50 of 1.5 nM.

With `C=CC(=O)N1CCN(c2nc(OC[C@@]34CCCN3C[C@H](F)C4)nc3c(OC4CC4)c(-c4c(C)ccc5[nH]ncc45)c(Cl)cc23)C[C@@H]1CC#N` [Example 933], the IC50 is 0.3 nM.

The compound `C=CC(=O)N1CCN(c2nc(OC[C@@]34CCCN3C[C@H](F)C4)nc3c(F)c(-c4cccc5cccc(Cl)c45)c(Cl)cc23)C[C@@H]1CC#N` [Example 510] yielded an IC50 of 130 nM.

For `C=C(F)C(=O)N1CCN(c2nc(OC[C@@H]3C[C@@H](F)CN3C)nc3cc(-c4cccc5cccc(Cl)c45)ccc23)C[C@@H]1CC#N` [Example 80], the IC50 was determined as 65 nM.

`C=CC(=O)N1CC[C@@H]2[C@H]1CN2c1nc(OC[C@@]23CCCN2C[C@H](F)C3)nc2c(F)c(-c3cccc4c3CCCC4)ncc12` [Example 15] displayed an IC50 of 3 nM.

The compound `C=CC(=O)N1CCN(c2nc(OCC34CCCN3C[C@H](F)C4)nc3cc(-c4cccc5ccc(F)c(Cl)c45)ccc23)C[C@@H]1CC#N` (stereo partly shown) [Example 99] showed an IC50 of 0.34 nM.

In turn, `C=CC(=O)N1CCN(c2nc(OC[C@@H]3CCCN3C)nc3c(F)c(-c4cncc5cccc(Cl)c45)ccc23)C[C@@H]1CC#N` [Example 158, 2-((S)-1-acryloyl-4-(7-(5-chloroisoquinolin-4-yl)-8-fluoro-2-(((S)-1-methylpyrrolidin-2-yl)methoxy)quinazolin-4-yl)piperazin-2-yl)acetonitrile] showed an IC50 of 4 nM.

`C=CC(=O)N1CCN(c2c(CC#N)c(OCC34CCCN3CCC4)nc3cc(-c4cccc5ccc(F)c(Cl)c45)c(F)cc23)C[C@@H]1CC#N` [Example 621, (S)-4-(4-acryloyl-3-(cyanomethyl)piperazin-1-yl)-7-(8-chloro-7-fluoronaphthalen-1-yl)-6-fluoro-2-((tetrahydro-1H-pyrrolizin-7a(5H)-yl)methoxy)quinoline-3-acetonitrile] had an IC50 of 330 nM.

In turn, `C=CC(=O)N1CCN(c2nc(OCC34CCCN3CCC4)nc3cc(-c4cccc5c4CCCC5)ccc23)C[C@@H]1CC#N` [Example 114, (S)-2-(1-acryloyl-4-(2-((tetrahydro-1H-pyrrolizin-7a(5H)-yl)methoxy)-7-(5,6,7,8-tetrahydronaphthalen-1-yl)quinazolin-4-yl)piperazin-2-yl)acetonitrile] returned an IC50 of 20 nM.

The compound `C=C(F)C(=O)N1CCN(c2nc(OCC3(CN4CCCC4)CC3)nc3c(F)c(-c4cccc5c4C4CC4C5)ncc23)C[C@@H]1CC#N` (single isomer, unassigned) [Example 867] registered an IC50 of 5.9 nM.

`C=CC(=O)N1CCN(c2nc(OC[C@@H]3C[C@@H](F)CN3C)nc3cc(-c4cncc5c4CCCC5)ccc23)C[C@@H]1CC#N` [Example 144] returned an IC50 of 25 nM.

`C=C(F)C(=O)N1CCN(c2nc(OC[C@@H]3CCCN3C)nc3c(F)c(-c4cccc5ccc(F)c(Cl)c45)ccc23)C[C@@H]1CC#N` [Example 913] had an IC50 of 3.6 nM.

`C=CC(=O)N1CCN(c2nc(OC[C@@H]3CCCN3C)nc3c(F)c(-c4cncc5c4CCCC5)ncc23)C[C@@H]1CC#N` [Example 33, 2-((S)-1-acryloyl-4-(8-fluoro-2-(((S)-1-methylpyrrolidin-2-yl)methoxy)-7-(5,6,7,8-tetrahydroisoquinoline-4-yl)pyridino[4,3-d]pyrimidin-4-yl)piperazin-2-yl)acetonitrile] yielded an IC50 of 25 nM.

`C=CC(=O)N1CCN(c2nc(OCC34CCCN3CCC4)nc3c(F)c(-c4cccc5c4[C@H]4C[C@H]4C5)ncc23)C[C@@H]1CC#N` [Example 63, 2-((S)-1-acryloyl-4-(8-fluoro-2-((tetrahydro-1H-pyrrolizin-7a(5H)-yl)methoxy)-7-((1aS,6aS)-1,1a,6,6a-tetrahydrocyclopropa[a]inden-2-yl)pyridino[4,3-d]pyrimidin-4-yl)piperazin-2-yl)acetonitrile] yielded an IC50 of 2.2 nM.

Consider `C=CC(=O)N1CC[C@@H]2[C@H]1CN2c1nc(OC[C@@]23CCCN2C[C@H](F)C3)nc2c(F)c(-c3cncc4c3CCCC4)ncc12` [Example 47], for which the concentration for half-maximal inhibition (IC50) came to 6.5 nM.

On to `C=CC(=O)N1CCN(c2nc(OCC34CCCN3CCC4)nc3cc(-c4cncc5c4CCCC5)ccc23)C[C@@H]1CC#N` [Example 146, (S)-2-(1-acryloyl-4-(2-((tetrahydro-1H-pyrrolizin-7a(5H)-yl)methoxy)-7-(5,6,7,8-tetrahydroisoquinolin-4-yl)quinazolin-4-yl)piperazin-2-yl)acetonitrile], for which it took 10 nM to reach half-maximal inhibition (IC50).
